Where “and” joins values, the source holds several entries; their conditions need not be identical. Equal values may be shown once.
Each molecule was assayed against T1, human erythrocyte plasma membrane Ca^2+ -ATPase (Homo sapiens, UniProt P23634) (assay: Ca^2+ -ATPase assay (erythrocyte membranes; Table 1)). Details: not given.
T1 construct: Calmodulin-depleted erythrocyte membranes were prepared by continuous filtration through a hollow fibre; tissue New South Wales Red Cross Transfusion Service, Sydney; host or cells: human packed red blood cells (calmodulin-depleted erythrocyte membranes)
Type: biochemical
Procedure: Natural and synthetic compounds of formula (I) were tested for their ability to influence human erythrocyte plasma membrane Ca^2+ -ATPase.
Packed cells were obtained from the New South Wales Red Cross Transfusion Service, Sydney. The whole preparation was carried out at 4° C. 1 unit of packed red cells was washed 3 times with isotonic buffer, containing 130 mM KCl, 20 mM Tris-HCl (pH 7.4), and the cells were collected by centrifugation at 4,000 RPM. The cells were haemolysed by the buffer containing 1 mM EDTA, 10 mM Tris-Hcl (pH 7.4), 0.5 mM PMSF (phenylmethyl sulfonyl fluoride). The haemolyzate mixture was passed through the hollow fibre system until the membrane appeared white, and then washed with 10 mM potassium Hepes (pH 7.4). The membranes were collected by centrifugation at 10,000 RPM for 20 min, the membranes were resuspended in storage buffer containing 130 mM KCl, 2 mM dithiothreitol, 0.5 mM MgCl2, 20 mM potassium-Hepes (pH 7.5). The membranes with protein concentration of 1.5-5.4 mg/ml were stored at -80° C. until required.
Erythrocyte membranes (0.071-0.098 mg/ml) were incubated at 37° C. for one hour in a total volume of 0.4 ml of 65 mM KCl, 20 mM potassium-Hepes, 5 mM MgCl2, 50 μM CaCl2, 0.1 μm calmodulin, 0.1 mM EGTA. The reaction was started by adding 2 mM ATP(pH 7.4). […] The activity of the Mg^2+ -ATPase (assayed in the absence of added CaCl2) was subtracted from the total activity assayed in the presence of Ca^2+. […] A concentrated solution of the test substances was added to the reaction medium before adding ATP.

T1 sequence (P23634 1-1205 isoform P23634-6): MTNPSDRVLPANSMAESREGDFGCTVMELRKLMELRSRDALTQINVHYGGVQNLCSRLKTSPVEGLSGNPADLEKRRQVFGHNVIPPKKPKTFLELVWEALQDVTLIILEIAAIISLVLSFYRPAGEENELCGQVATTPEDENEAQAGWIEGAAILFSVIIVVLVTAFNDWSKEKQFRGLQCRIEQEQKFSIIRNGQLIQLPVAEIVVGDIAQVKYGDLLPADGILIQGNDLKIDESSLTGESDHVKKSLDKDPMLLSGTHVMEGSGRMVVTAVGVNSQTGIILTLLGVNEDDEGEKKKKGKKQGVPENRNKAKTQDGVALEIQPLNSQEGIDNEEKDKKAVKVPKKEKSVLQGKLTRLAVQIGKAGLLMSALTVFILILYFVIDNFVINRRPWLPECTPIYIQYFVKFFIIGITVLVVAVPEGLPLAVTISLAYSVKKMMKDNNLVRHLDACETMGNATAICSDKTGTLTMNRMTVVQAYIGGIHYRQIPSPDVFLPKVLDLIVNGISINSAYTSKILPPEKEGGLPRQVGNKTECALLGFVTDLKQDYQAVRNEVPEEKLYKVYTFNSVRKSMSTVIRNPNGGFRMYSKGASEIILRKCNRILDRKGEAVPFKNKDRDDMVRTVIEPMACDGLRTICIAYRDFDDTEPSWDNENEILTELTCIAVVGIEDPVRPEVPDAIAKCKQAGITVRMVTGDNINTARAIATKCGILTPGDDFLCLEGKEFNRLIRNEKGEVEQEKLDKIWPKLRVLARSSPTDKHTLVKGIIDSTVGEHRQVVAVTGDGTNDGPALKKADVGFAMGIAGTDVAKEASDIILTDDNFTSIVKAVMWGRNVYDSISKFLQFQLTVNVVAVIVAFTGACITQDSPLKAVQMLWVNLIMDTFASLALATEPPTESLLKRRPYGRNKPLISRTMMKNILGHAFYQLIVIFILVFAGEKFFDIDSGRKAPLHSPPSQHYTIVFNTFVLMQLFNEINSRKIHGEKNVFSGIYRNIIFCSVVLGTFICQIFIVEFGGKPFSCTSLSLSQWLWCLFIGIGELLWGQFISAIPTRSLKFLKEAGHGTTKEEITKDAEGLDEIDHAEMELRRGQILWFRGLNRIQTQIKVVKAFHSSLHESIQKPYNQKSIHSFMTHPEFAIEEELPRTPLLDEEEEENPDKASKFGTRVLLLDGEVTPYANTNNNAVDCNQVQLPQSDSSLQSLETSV
T1 sequence (P35613 140-385 partner limits assumed): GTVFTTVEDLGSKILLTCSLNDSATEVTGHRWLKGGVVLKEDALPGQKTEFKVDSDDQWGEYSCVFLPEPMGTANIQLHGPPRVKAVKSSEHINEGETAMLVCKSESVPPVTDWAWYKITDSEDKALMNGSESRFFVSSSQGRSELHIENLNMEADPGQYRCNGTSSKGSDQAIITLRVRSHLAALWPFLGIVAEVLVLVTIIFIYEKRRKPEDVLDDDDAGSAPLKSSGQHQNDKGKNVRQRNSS

| Molecule | IC50 | Ca^2+ -ATPase inhibitory activity (in words) |
| --- | --- | --- |
| Oc1ccc(C2CCCCC2)cc1 [4-cyclohexylphenol] | 271 µM | – |
| CCCCCCCCCCc1ccc(O)cc1 [4-decylphenol] | 170 µM | – |
| CC(C)=CCC/C(C)=C/CC/C(C)=C/Cc1c(C)cc(O)cc1O [neogrifolin, 4-E,E-farnesyl-5-methyl-resorcinol] | – | most potent among the alkyl and alkenyl resorcinols tested |
| CC(C)(C)c1cc(C(C)(C)C)c(O)c(C(C)(C)C)c1 [2,4,6-tri-tert-butylphenol, reference compound] | 15 µM | – |
| CCCCCCCCCCCCCc1cc(O)cc(O)c1 [grevillol, 5-tridecylresorcinol] | – | weak |
| CCCCCCCCCc1cccc(O)c1 [3-nonylphenol] | 64 µM | – |
| CCCCCCCCc1ccccc1O [2-octylphenol] | 32 µM | – |
| CC(C)(C)CC(C)(C)c1ccc(O)cc1 [4-tert-octylphenol, reference compound] | 60 µM | – |
| Oc1cc(O)cc(CCCCC/C=C\CCCCCCCc2cc(O)cc(O)c2)c1 [grebustol-B, 1,14-bis(3,5-dihydroxyphenyl)tetradec-Z-6-ene] | – | weaker |

Same assay, conditions: at 50 μM; read-out: INHIBITION OF Ca^2+ -ATPase PERCENT (%)

| Molecule | inhibition at 50 µM |
| --- | --- |
| Oc1ccc(CCCCCCCCCCc2ccccc2O)cc1 [1-(2-hydroxyphenyl)-10-(4-hydroxyphenyl)decane] | 100% |
| Cc1c(O)cc(CCCCCCCCCCCCCCc2cc(O)cc(O)c2)cc1O [grebustol-A, 1-(3,5-dihydroxy-phenyl)-14-(3,5-dihydroxy-4-methylphenyl)tetradecane] | 100% |

Same assay, conditions: at 100 μM

| Molecule | INHIBITION OF Ca^2+ -ATPase PERCENT (%) |
| --- | --- |
| nonylphenol [nonylphenol (commercial), reference compound] | 100% |

Same assay, conditions: at 100 μM; read-out: INHIBITION OF Ca^2+ -ATPase PERCENT (%)

| Molecule | inhibition at 100 µM |
| --- | --- |
| Oc1ccc(C2CCCCC2)cc1 [4-cyclohexylphenol] | 16% |
| CC(C)=CCC/C(C)=C/CC/C(C)=C/Cc1c(O)cc(C)cc1O [grifolin, 2-E,E-farnesyl-5-methyl-resorcinol] | 100% |
| Cc1cc(C(C)(C)C)c(O)c(C(C)(C)C)c1 [BHT, 2,6-di-tert-butyl-4-methylphenol, reference compound] | 69% |
| Oc1ccc(CCCCCCCCCCCCc2ccccc2O)cc1 [1-(2-hydroxyphenyl)-12-(4-hydroxyphenyl)dodecane] | 99% |
| CCCCCCc1ccc(O)cc1O [4-hexylresorcinol, reference compound] | 17% |
| CCCCCCCCCCc1ccccc1O [2-decylphenol] | 85% |
| CCCCCCCCC(=O)c1ccccc1O [2-nonanoylphenol] | 32% |
| Oc1ccc(CCCCCCCCCCc2ccc(O)cc2)cc1 [1,10-bis(4-hydroxyphenyl)decane] | 52% |
| CC(C)=CCC/C(C)=C/CC/C(C)=C/Cc1c(C)cc(O)cc1O [neogrifolin, 4-E,E-farnesyl-5-methyl-resorcinol] | 100% |
| CC(C)(C)c1cc(C(C)(C)C)c(O)c(C(C)(C)C)c1 [2,4,6-tri-tert-butylphenol, reference compound] | 79% |
| CCCCCCCCCCCCCc1cc(O)cc(O)c1 [grevillol, 5-tridecylresorcinol] | 44% |
| Oc1cc(O)cc(CCCCC/C=C\CCCCCCCc2cc(O)cc(O)c2)c1 [grebustol-B, 1,14-bis(3,5-dihydroxyphenyl)tetradec-Z-6-ene] | 90% |

Same assay, conditions: read-out: INHIBITION OF Ca^2+ -ATPase IC50

| Molecule | IC50 |
| --- | --- |
| nonylphenol [nonylphenol (commercial), reference compound] | 27.5 µM |
| CC(C)=CCC/C(C)=C/CC/C(C)=C/Cc1c(O)cc(C)cc1O [grifolin, 2-E,E-farnesyl-5-methyl-resorcinol] | 22.5 µM |
| Cc1cc(C(C)(C)C)c(O)c(C(C)(C)C)c1 [BHT, 2,6-di-tert-butyl-4-methylphenol, reference compound] | 66 µM |
| Oc1ccc(CCCCCCCCCCCCc2ccccc2O)cc1 [1-(2-hydroxyphenyl)-12-(4-hydroxyphenyl)dodecane] | 18.8 µM |
| CCCCCCc1ccc(O)cc1O [4-hexylresorcinol, reference compound] | 259 µM |
| CCCCCCCCCCc1ccccc1O [2-decylphenol] | 42 µM |
| CCCCCCCCC(=O)c1ccccc1O [2-nonanoylphenol] | > 100 µM |
| Oc1ccc(CCCCCCCCCCc2ccc(O)cc2)cc1 [1,10-bis(4-hydroxyphenyl)decane] | 93 µM |
| Oc1ccc(CCCCCCCCCCc2ccccc2O)cc1 [1-(2-hydroxyphenyl)-10-(4-hydroxyphenyl)decane] | 12 µM |
| CC(C)=CCC/C(C)=C/CC/C(C)=C/Cc1c(C)cc(O)cc1O [neogrifolin, 4-E,E-farnesyl-5-methyl-resorcinol] | 23.3 µM |
| Cc1c(O)cc(CCCCCCCCCCCCCCc2cc(O)cc(O)c2)cc1O [grebustol-A, 1-(3,5-dihydroxy-phenyl)-14-(3,5-dihydroxy-4-methylphenyl)tetradecane] | 17 µM |
| CCCCCCCCCCCCCc1cc(O)cc(O)c1 [grevillol, 5-tridecylresorcinol] | 143 µM |
| Oc1cc(O)cc(CCCCC/C=C\CCCCCCCc2cc(O)cc(O)c2)c1 [grebustol-B, 1,14-bis(3,5-dihydroxyphenyl)tetradec-Z-6-ene] | 50 µM |

Same assay, conditions: read-out: INHIBITION OF Ca^2+ -ATPase PERCENT (%)

| Molecule | inhibition at 100 µM |
| --- | --- |
| CCCCCCCCCCc1ccc(O)cc1 [4-decylphenol] | 24% |
| CCCCCCCCCc1cccc(O)c1 [3-nonylphenol] | 69% |
| CCCCCCCCc1ccccc1O [2-octylphenol] | 100% |
| CC(C)(C)CC(C)(C)c1ccc(O)cc1 [4-tert-octylphenol, reference compound] | 94% |

What follows are molecules tested on brine shrimp (Artemia salina Leach) (assay: Brine shrimp toxicity bioassay). Details: 24 hours.
Type: in vivo
Procedure: There are many applications of the assay including analysis of toxic substances, anaesthetics, morphine-like substances and cocarcinogenicity of phorbol esters.
6 (K Hostettman, ed.), Academ Press, London, 1-32. DMSO solutions of the substances to be tested were added directly to the vials containing the brine shrimp. As the concentration of DMSO that we wished to use was higher than the recommended 1% v/v testing of the toxicity of the DMSO was therefore necessary.
Brine shrimp toxicity was assayed, except for some minor modifications, according to the method of McLaughlin et al as reported in Brine Shrimp: A convenient general bioassay for active plant constituents, B N Meyer, N R Ferrigni, J E Putman, L B Jacobsen, D E Nhols and J L McLaughlin. […] J L McLaughlin. […] 6 (K Hostettman, ed.), Academ Press, London, 1-32. Ten shrimp were added transferred to each of the vials and the volume adjusted to 4.9 mL. Each dose was performed in triplicate, including the control. In quick succession, the appropriate volume of additional DMSO for each dose, required to achieve a final concentration of 2%, was added before the appropriate volume of test solution. The vials were gently mixed and the time noted. After 24 hours, the number of survivors were counted and % mortality was determined.
The LC50 values were expressed in both μM and μg/mL.

| Molecule | toxicity to brine shrimp (in words) |
| --- | --- |
| CCCCCCCCCCCCCc1cc(O)cc(O)c1 [grevillol, 5-tridecylresorcinol] | moderately toxic |

Same assay, conditions: Artemia salina, 24 h, read-out: LC50 brine shrimp

| Molecule | LC50 |
| --- | --- |
| Oc1ccc(C2CCCCC2)cc1 [4-cyclohexylphenol] | > 25 µM and > 4.4 µg/mL |
| CCCCCCCCCCc1ccc(O)cc1 [4-decylphenol] | 270 nM and 0.064 µg/mL |
| CCCCCCCCCc1cccc(O)c1 [3-nonylphenol] | 320 nM and 0.07 µg/mL |
| CCCCCCCCc1ccccc1O [2-octylphenol] | 1.5 µM and 0.31 µg/mL |

Same assay, conditions: Artemia salina; 24 hours; read-out: LC50 brine shrimp

| Molecule | LC50 |
| --- | --- |
| CC(C)=CCC/C(C)=C/CC/C(C)=C/Cc1c(O)cc(C)cc1O [grifolin, 2-E,E-farnesyl-5-methyl-resorcinol] | 2.3 µM and 0.75 µg/mL |
| Oc1ccc(CCCCCCCCCCCCc2ccccc2O)cc1 [1-(2-hydroxyphenyl)-12-(4-hydroxyphenyl)dodecane] | 54 nM and 0.019 µg/mL |
| CCCCCCc1ccc(O)cc1O [4-hexylresorcinol, reference compound] | 62 µM and 12 µg/mL |
| CCCCCCCCCCc1ccccc1O [2-decylphenol] | 680 nM and 0.16 µg/mL |
| CCCCCCCCC(=O)c1ccccc1O [2-nonanoylphenol] | 630 nM and 0.15 µg/mL |
| Oc1ccc(CCCCCCCCCCc2ccc(O)cc2)cc1 [1,10-bis(4-hydroxyphenyl)decane] | 810 nM and 0.26 µg/mL |
| Oc1ccc(CCCCCCCCCCc2ccccc2O)cc1 [1-(2-hydroxyphenyl)-10-(4-hydroxyphenyl)decane] | 350 nM and 0.11 µg/mL |
| CC(C)=CCC/C(C)=C/CC/C(C)=C/Cc1c(C)cc(O)cc1O [neogrifolin, 4-E,E-farnesyl-5-methyl-resorcinol] | 28 µM and 9 µg/mL |
| CCCCCCCCCCCCCc1cc(O)cc(O)c1 [grevillol, 5-tridecylresorcinol] | 2.8 µM and 0.8 µg/mL |

Same assay, conditions: neogrifolin compared with grifolin

| Molecule | relative toxicity to brine shrimp |
| --- | --- |
| CC(C)=CCC/C(C)=C/CC/C(C)=C/Cc1c(C)cc(O)cc1O [neogrifolin, 4-E,E-farnesyl-5-methyl-resorcinol] | about ten-fold weaker |

From patent US5859067A, “Use of natural products and related synthetic compounds for the treatment of cardiovascular disease” (priority 1993, dated 1999)
